Test results from patent US20170334899A1, “AMINO-SUBSTITUTED ISOTHIAZOLES” (Bayer Pharma Aktiengesellschaft, priority 2014, published 2017).
pIC50: −log10 of the molar value.

Molecular target: T1, CDK2/CycE (Homo sapiens, UniProt P24941)
T1 construct: GST; purchased ProQinase GmbH (Freiburg, Germany); host or cells: insect cells (Sf9)
Assay: CDK2/CycE kinase assay (TR-FRET)
Format: biochemical
Conditions: avg, read-out: CDK2 avg (IC50 [mol/l])
In short: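 Read-out is a TR-FRET 665/620 nm emission ratio from EDTA-stopped reactions detected with anti-pRB(pSer807/pSer811), Eu-labelled anti-mouse IgG and streptavidin-XL665, scaled between no-enzyme and uninhibited wells. Reaction: Sf9-expressed GST-CDK2/GST-CycE, 15 min compound preincubation, 10 μM ATP, 0.75 μM biotin-peptide, 25 min, 22° C., pH 8.0 Tris buffer.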

SMILES	pIC50
Cc1nsc(Nc2cnc3ccccc3n2)c1C(=O)Nc1cccc(C(=O)N[C@@H](CCC(N)=O)C(=O)OC(C)(C)C)c1 [Example 56, tert-butyl N^2-[3-({[3-methyl-5-(quinoxalin-2-ylamino)-1,2-thiazol-4-yl]carbonyl}amino)-benzoyl]glutaminate]	≤ 4.70
Cc1nsc(Nc2ccc(C#N)cn2)c1C(=O)Nc1ccc(OC2CCCN(CCF)C2)nc1 (stereo not drawn) [Example 38, 5-[(5-Cyanopyridin-2-yl)amino]-N-(6-{[1-(2-fluoroethyl)piperidin-3-yl]oxy}pyridin-3-yl)-3-methyl-1,2-thiazole-4-carboxamide]	≤ 4.70
Cc1nsc(Nc2cnc(C(F)(F)F)cn2)c1C(=O)Nc1ccc(OCCCNC(=O)C(F)(F)F)nc1 [Example 428, 3-Methyl-N-(6-{3-[(trifluoroacetyl)amino]propoxy}pyridin-3-yl)-5-{[5-(trifluoro-methyl)pyrazin-2-yl]amino}-1,2-thiazole-4-carboxamide]	< 4.70
Cc1nsc(Nc2cnc3ccccc3n2)c1C(=O)Nc1cccc(C(=O)O)c1 [Example 51, 3-({[3-Methyl-5-(quinoxalin-2-ylamino)-1,2-thiazol-4-yl]carbonyl}amino)benzoic acid]	≤ 4.70
Cc1nsc(Nc2cnc3ccccc3n2)c1C(=O)Nc1cccc(C(=O)NCC(=O)OC(C)(C)C)c1 [Example 54, tert-Butyl N-[3-({[3-methyl-5-(quinoxalin-2-ylamino)-1,2-thiazol-4-yl]carbonyl}amino)-benzoyl]glycinate]	≤ 4.70
Cc1nsc(Nc2ccc(C#N)cn2)c1C(=O)Nc1ccc(OC2CCCN(C(=O)OC(C)(C)C)C2)nc1 (stereo not drawn) [Example 36, tert-Butyl 3-({5-[({5-[(5-cyanopyridin-2-yl)amino]-3-methyl-1,2-thiazol-4-yl}-carbonyl)amino]pyridin-2-yl}oxy)piperidine-1-carboxylate]	≤ 4.70
Cc1nsc(Nc2cncc(C(F)(F)F)n2)c1C(=O)Nc1ccc(OCCN(C)C(=O)OC(C)(C)C)nc1 [Example 430, tert-Butyl methyl{2-[(5-{[(3-methyl-5-{[6-(trifluoromethyl)pyrazin-2-yl]amino}-1,2-thiazol-4-yl)carbonyl]amino}pyridin-2-yl)oxy]ethyl}carbannate]	< 4.70
Cc1nsc(Nc2nc3c(C(F)(F)F)cccc3s2)c1C(=O)Nc1ccc(OCCO)c(F)c1 [Example 4, N-[3-Fluoro-4-(2-hydroxyethoxy)phenyl]-3-methyl-5-{[4-(trifluoromethyl)-1,3-benzothiazol-2-yl]amino}-1,2-thiazole-4-carboxamide]	≤ 4.70
Cc1nsc(Nc2cnc(C(F)(F)F)cn2)c1C(=O)Nc1ccc(F)c(OC[C@@H]2CCN(CC(F)F)C2)c1 [Example 403, N-(3-{[(3R)-1-(2,2-difluoroethyl)pyrrolidin-3-yl]methoxy}-4-fluorophenyl)-3-methyl-5-{[5-(trifluoromethyl)pyrazin-2-yl]amino}-1,2-thiazole-4-carboxamide]	< 4.70
Cc1nsc(Nc2cnc(C(F)(F)F)cn2)c1C(=O)Nc1ccc(F)c(O[C@@H]2CCN(CC(F)F)C2)c1 [Example 412, N-(3-{[(3R)-1-(2,2-Difluoroethyl)pyrrolidin-3-yl]oxy}-4-fluorophenyl)-3-methyl-5-{[5-(trifluoromethyl)pyrazin-2-yl]amino}-1,2-thiazole-4-carboxamide]	< 4.70
Cc1nsc(Nc2cnc(C(F)(F)F)cn2)c1C(=O)Nc1ccc(F)c(O[C@@H]2CCN(CCC(F)(F)F)C2)c1 [Example 414, N-(4-Fluoro-3-{[(3R)-1-(3,3,3-trifluoropropyl)pyrrolidin-3-yl]oxy}phenyl)-3-methyl-5-{[5-(trifluoromethyl)pyrazin-2-yl]amino}-1,2-thiazole-4-carboxamide]	< 4.70
Cc1nsc(Nc2cnc3ccccc3n2)c1C(=O)Nc1ccc(NCCN(C)C(=O)OC(C)(C)C)nc1 [Example 434, tert-Butyl methyl(2-{[5-({[3-methyl-5-(quinoxalin-2-ylamino)-1,2-thiazol-4-yl]carbonyl}amino)pyridin-2-yl]amino}ethyl)carbamate]	< 4.70
Cc1nsc(Nc2cnccn2)c1C(=O)Nc1ccc(OC2CCCN(C(=O)OC(C)(C)C)C2)nc1 (stereo not drawn) [Example 41, tert-Butyl 3-{[5-({[3-methyl-5-(pyrazin-2-ylamino)-1,2-thiazol-4-yl]carbonyl}amino)-pyridin-2-yl]oxy}piperidine-1-carboxylate]	≤ 4.70
Cc1nsc(Nc2cnc(C(F)(F)F)cn2)c1C(=O)Nc1ccc(F)c(OCC2CCN(CC(F)(F)F)C2)c1 (stereo not drawn) [Example 318, N-(4-fluoro-3-{[1-(2,2,2-trifluoroethyl)pyrrolidin-3-yl]methoxy}phenyl)-3-methyl-5-{[5-(trifluoromethyl)pyrazin-2-yl]amino}-1,2-thiazole-4-carboxamide]	< 4.70
Cc1nsc(Nc2cnc(C(F)(F)F)cn2)c1C(=O)Nc1ccc(OCCN2CCC(F)(F)CC2)nc1 [Example 407, N-{6-[2-(4,4-Difluoropiperidin-1-yl)ethoxy]pyridin-3-yl}-3-methyl-5-{[5-(trifluoromethyl)pyrazin-2-yl]amino}-1,2-thiazole-4-carboxamide]	< 4.70
Cc1nsc(Nc2cnccn2)c1C(=O)Nc1ccc(OCCCNC(=O)OC(C)(C)C)nc1 [Example 47, tert-Butyl (3-{[5-({[3-methyl-5-(pyrazin-2-ylamino)-1,2-thiazol-4-yl]carbonyl}-amino)pyridin-2-yl]oxy}propyl)carbamate]	≤ 4.70
CCN1CCC(Oc2ccc(NC(=O)c3c(C)nsc3Nc3cnc(C(F)(F)F)cn3)cn2)C(F)(F)C1 (stereo not drawn) [Example 406, N-{6-[(1-Ethyl-3,3-difluoropiperidin-4-yl)oxy]pyridin-3-yl}-3-methyl-5-{[5-(trifluoromethyl)pyrazin-2-yl]amino}-1,2-thiazole-4-carboxamide]	< 4.70
Cc1nsc(Nc2cnc(C(F)(F)F)cn2)c1C(=O)Nc1ccc(OC2CCN(C(=O)OC(C)(C)C)CC2)nc1 [Example 5, tert-Butyl 4-[(5-{[(3-methyl-5-{[5-(trifluoromethyl)pyrazin-2-yl]amino}-1,2-thiazol-4-yl)carbonyl]amino}pyridin-2-yl)oxy]piperidine-1-carboxylate]	≤ 4.70
Cc1nsc(Nc2cnc(C(F)(F)F)cn2)c1C(=O)Nc1ccc(F)c(O[C@H]2CCN(CC(F)(F)F)C2)c1 [Example 416, N-(4-Fluoro-3-{[(35)-1-(2,2,2-trifluoroethyl)pyrrolidin-3-yl]oxy}phenyl)-3-methyl-5-{[5-(trifluoromethyl)pyrazin-2-yl]amino}-1,2-thiazole-4-carboxamide]	< 4.70
COC(=O)c1cccc(NC(=O)c2c(C)nsc2Nc2cnc3ccccc3n2)c1 [Example 50, Methyl 3-({[3-methyl-5-(quinoxalin-2-ylamino)-1,2-thiazol-4-yl]carbonyl}amino)-benzoate]	≤ 4.70

The next lines start with the values.

pIC50	SMILES
≤ 4.70	Cc1nsc(Nc2cnc(C(F)(F)F)cn2)c1C(=O)Nc1ccc(OCCNC(=O)C(F)(F)F)nc1 [Example 425, 3-Methyl-N-(6-{2-[(trifluoroacetyl)amino]ethoxy}pyridin-3-yl)-5-{[5-(trifluoro-methyl)pyrazin-2-yl]amino}-1,2-thiazole-4-carboxamide]
≤ 4.70	Cc1nsc(Nc2cnc3ccccc3n2)c1C(=O)Nc1cccc(C(=O)OC(C)(C)C)c1 [Example 49, tert-Butyl 3-({[3-methyl-5-(quinoxalin-2-ylamino)-1,2-thiazol-4-yl]carbonyl}amino)-benzoate]
≤ 4.70	Cc1nsc(Nc2ccc(C#N)cn2)c1C(=O)Nc1ccc(OC2CCCN(CC(F)F)C2)nc1 (stereo not drawn) [Example 39, 5-[(5-Cyanopyridin-2-yl)amino]-N-(6-{[1-(2,2-difluoroethyl)piperidin-3-yl]oxy}-pyridin-3-yl)-3-methyl-1,2-thiazole-4-carboxamide]
≤ 4.70	Cc1nsc(Nc2cnc3ccccc3n2)c1C(=O)Nc1cccc(C(=O)NC(C)(C)C)c1 [Example 53, N-[3-(tert-Butylcarbamoyl)-phenyl]-3-methyl-5-(quinoxalin-2-ylamino)-1,2-thiazole-4-carboxamide]
< 4.70	Cc1nsc(Nc2cnc3ccccc3n2)c1C(=O)Nc1cccc(NC(=O)C(F)(F)F)c1 [Example 432, 3-Methyl-5-(quinoxalin-2-ylamino)-N-{3-[(trifluoroacetyl)amino]phenyl}-1,2-thiazole-4-carboxamide]
≤ 4.70	Cc1nsc(Nc2ccc(C#N)cn2)c1C(=O)Nc1ccc(OC2CCCN(CC(F)(F)F)C2)nc1 (stereo not drawn) [Example 40, 5-[(5-Cyanopyridin-2-yl)amino]-3-methyl-N-(6-{[1-(2,2,2-trifluoroethyl)piperidin-3-yl]oxy}pyridin-3-yl)-1,2-thiazole-4-carboxamide]
≤ 4.70	Cc1nsc(Nc2cnc3ccccc3n2)c1C(=O)Nc1cccc(C(=O)N2CCOCC2)c1 [Example 52, 3-Methyl-N-[3-(morpholin-4-ylcarbonyl)phenyl]-5-(quinoxalin-2-ylamino)-1,2-thiazole-4-carboxamide]
< 4.70	Cc1nsc(Nc2cnc(C(F)(F)F)cn2)c1C(=O)Nc1ccc(OC[C@H]2CCCN(CCC(F)(F)F)C2)nc1 [Example 378, 3-methyl-5-{[5-(trifluoromethyl)pyrazin-2-yl]amino}-N-(6-{[(3S)-1-(3,3,3-trifluoropropyl)piperidin-3-yl]methoxy}pyridin-3-yl)-1,2-thiazole-4-carboxamide]
≤ 4.70	COCCOc1ccc(NC(=O)c2c(C)nsc2Nc2nc3c(C(F)(F)F)cccc3s2)cc1F [Example 1, N-[3-Fluoro-4-(2-methoxyethoxy)phenyl]-3-methyl-5-{[4-(trifluoromethyl)-1,3-benzothiazol-2-yl]amino}-1,2-thiazole-4-carboxamide]
≤ 4.70	Cc1nsc(Nc2cc(C#N)ccn2)c1C(=O)Nc1ccc(OCCCN)nc1 [Example 44, N-[6-(3-Aminopropoxy)pyridin-3-yl]-5-[(4-cyanopyridin-2-yl)amino]-3-methyl-1,2-thiazole-4-carboxamide]
